Reference: patent US12297192B2, “Crystal form of pyrimidine sulfonamide compound and preparation method therefor” (WUXI BIOCITY BIOPHARMACEUTICS CO., LTD., priority 2019, dated 2025)

Legend:
[1] = Stability test of Crystal Form A in different solvents (XRPD after 3 days stirring in saturated solutions); type: physicochemical; conditions: for Crystalline (form by XRPD, 3 days later) / Status (3 days later): 0.3 mL
Protocol: The crude compound of formula (I) was dissolved in dichloromethane at 38-40° C., filtered while hot, concentrated under reduced pressure to dryness to obtain mixed crystals of formula (I). Saturated solutions of mixed crystals of the compound of formula (I) in THF and ACN were prepared at 50° C., respectively.
The suspension was centrifuged. The precipitate was taken and dried overnight in a vacuum oven at 30° C. The dried product was subjected to XRPD to determine the status of the crystal forms.

[2] = Pharmacokinetic evaluation in Beagle dogs; type: in vivo; conditions: for Bioavailability F: 3 mg/kg
Protocol: Male Beagle dogs were used as the test animals in this study. The LC/MS/MS method was applied to quantify the plasma drug concentrations in Beagle dogs at different time points after administration of the test compound by intravenous injection or oral gavage to evaluate the pharmacokinetic profile of the test compound in Beagle dogs.
Beagle dogs (Male, 6-15 kg, above 6 months, Beijing Marshall Biotechnology Co.)
A clear solution of the test compound was administered to the Beagle dogs by intravenous injection (overnight fasting) or oral gavage (overnight fasting). At 0 h (before administration by intravenous injection) and at 0.0833, 0.25, 0.5, 1, 2, 4, 6, 8 and 24 h after administration by intravenous injection, about 500 μL of blood was collected from peripheral blood vessels into anticoagulation tubes supplemented with EDTA-K2 (Jiangsu Kangjian Medical Supplies Co., Ltd.). At 0 hours (before administration by oral gavage) and 0.25, 0.5, 1, 2, 4, 6, 8 and 24 hours after administration by oral gavage, about 500 μL of blood was collected from peripheral blood vessels into anticoagulation tubes supplemented with EDTA-K2. The mixture in the anticoagulation tube was vortexed thoroughly at 4° C. and the plasma was then centrifuged at 13,000 rpm for 10 minutes to obtain the plasma. Blood concentrations were determined by LC/MS/MS and the relevant pharmacokinetic parameters were calculated using WinNonlin™ Version 6.3 (Pharsight, Mountain View, CA) pharmacokinetics software with a non-compartmental model linear-log trapezoidal method.

CYP1A2 = molecular target: T1, CYP1A2 (Homo sapiens, UniProt P05177); assay: Human liver microsomal cytochrome P450 isozyme inhibition; type: in vitro ADME; conditions: human liver microsomes
T1 construct: Mixed human liver microsomes (HLM) were purchased from Corning Inc; tissue Corning Inc; host or cells: pooled human liver microsomes
T1 sequence (P05177 1-516): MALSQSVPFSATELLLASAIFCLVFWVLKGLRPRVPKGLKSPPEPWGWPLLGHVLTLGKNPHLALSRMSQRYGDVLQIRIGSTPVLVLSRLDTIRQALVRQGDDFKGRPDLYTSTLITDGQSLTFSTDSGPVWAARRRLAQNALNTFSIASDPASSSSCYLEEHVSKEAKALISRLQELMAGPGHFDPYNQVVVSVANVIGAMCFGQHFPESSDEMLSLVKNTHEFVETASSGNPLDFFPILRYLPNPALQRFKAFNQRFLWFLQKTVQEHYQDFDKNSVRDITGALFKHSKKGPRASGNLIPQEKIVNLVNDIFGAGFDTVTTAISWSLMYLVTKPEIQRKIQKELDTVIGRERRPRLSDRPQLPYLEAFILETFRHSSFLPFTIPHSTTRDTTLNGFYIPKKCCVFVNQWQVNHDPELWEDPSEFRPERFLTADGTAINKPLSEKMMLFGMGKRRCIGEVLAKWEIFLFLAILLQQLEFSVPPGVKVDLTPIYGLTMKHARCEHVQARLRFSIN
Protocol: (§1) The aim of the project was to evaluate the inhibitory activity of the test article against human liver microsomal cytochrome P450 isozymes (CYP1A2, CYP2C9, CYP2C19, CYP2D6 and CYP3A4) using a 5-in-1 probe substrate for CYP isozymes.
(§2) Mixed human liver microsomes (HLM) were purchased from Corning Inc. (Steuben, New York, USA) and stored at less than −80° C. prior to use. A diluted series of concentrations of the stock solution of the test article was added to an incubation system containing human liver microsomes, probe substrate and cofactors of the circulatory system. The control without the test article but with solvent was used as the enzyme activity control (100%). The concentration of metabolites generated by the probe substrate in the samples was determined by liquid chromatography-tandem mass spectrometry (LC-MS/MS). A non-linear regression analysis of the mean percentage activity of the test article against concentration was performed using SigmaPlot (V.11). The IC50 values were calculated using a three- or four-parameter inverse hyperbolic logarithmic function.

CYP2C9 = molecular target: T2, CYP2C9 (Homo sapiens, UniProt P11712); assay: as above; type: in vitro ADME; conditions: human liver microsomes
T2 construct: Mixed human liver microsomes (HLM) were purchased from Corning Inc; tissue Corning Inc; host or cells: pooled human liver microsomes
Protocol: as §1, §2

CYP2C19 = molecular target: T3, CYP2C19 (Homo sapiens, UniProt P33261); assay: as above; type: in vitro ADME; conditions: human liver microsomes
T3 construct: Mixed human liver microsomes (HLM) were purchased from Corning Inc; tissue Corning Inc; host or cells: pooled human liver microsomes
Protocol: as §1, §2

T3 sequence (P33261 whole entry): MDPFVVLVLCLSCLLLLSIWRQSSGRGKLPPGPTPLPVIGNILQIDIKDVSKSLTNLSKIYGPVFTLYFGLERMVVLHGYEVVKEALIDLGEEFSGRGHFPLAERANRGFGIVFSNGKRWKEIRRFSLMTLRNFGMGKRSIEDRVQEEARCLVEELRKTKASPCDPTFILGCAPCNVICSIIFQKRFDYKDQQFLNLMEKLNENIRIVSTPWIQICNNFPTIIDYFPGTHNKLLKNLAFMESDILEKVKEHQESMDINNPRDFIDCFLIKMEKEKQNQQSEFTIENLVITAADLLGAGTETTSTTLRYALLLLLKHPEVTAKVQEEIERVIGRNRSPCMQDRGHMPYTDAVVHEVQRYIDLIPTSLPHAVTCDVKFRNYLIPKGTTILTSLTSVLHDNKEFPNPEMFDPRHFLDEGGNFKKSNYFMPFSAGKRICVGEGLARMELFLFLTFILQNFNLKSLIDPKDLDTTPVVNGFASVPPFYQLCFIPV
T2 sequence (P11712 whole entry): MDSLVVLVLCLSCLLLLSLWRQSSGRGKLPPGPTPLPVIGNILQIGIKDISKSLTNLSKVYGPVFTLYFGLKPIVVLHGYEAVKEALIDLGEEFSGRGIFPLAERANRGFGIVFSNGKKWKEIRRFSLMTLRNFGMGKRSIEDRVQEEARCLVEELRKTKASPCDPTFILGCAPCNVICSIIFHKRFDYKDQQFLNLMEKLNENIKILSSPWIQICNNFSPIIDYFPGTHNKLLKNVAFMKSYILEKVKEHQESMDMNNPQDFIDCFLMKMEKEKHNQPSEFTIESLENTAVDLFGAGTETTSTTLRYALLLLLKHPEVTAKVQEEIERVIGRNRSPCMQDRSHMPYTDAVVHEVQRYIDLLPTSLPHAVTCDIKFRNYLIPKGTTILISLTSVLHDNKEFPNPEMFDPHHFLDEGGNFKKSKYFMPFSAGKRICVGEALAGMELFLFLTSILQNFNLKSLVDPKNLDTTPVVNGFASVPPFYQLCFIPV

## COCCNS(=O)(=O)Nc1ncnc(OCCOc2ncc(Br)cn2)c1-c1ccc2c(c1)OCO2
[1]; Acetonitrile, 25 °C
  Crystalline (form by XRPD, 3 days later): Crystal Form A
  Status (3 days later): Precipitation
[1]; Acetonitrile, 50 °C
  Crystalline (form by XRPD, 3 days later): Crystal Form A
  Status (3 days later): Precipitation
[1]; Tetrahydrofuran, 25 °C
  Crystalline (form by XRPD, 3 days later): Crystal Form A
  Status (3 days later): Precipitation
[1]; Tetrahydrofuran, 50 °C
  Crystalline (form by XRPD, 3 days later): Crystal Form A
  Status (3 days later): Precipitation
[1]; acetonitrile and tetrahydrofuran at both 25° C. and 50° C.
  Stability in solvents (conclusion in words): Experimental conclusion: Crystal Form A of the compound of formula (I) had good stability in acetonitrile and tetrahydrofuran at both 25 °C and 50 °C

## COCCNS(=O)(=O)Nc1ncnc(OCCOc2ncc(Br)cn2)c1-c1ccc2c(c1)OCO2 [Compound of formula (I)]
[2]; intravenous injection 1 mg/kg
  Area under the drug concentration-time curve: 7.56 µM·h
[2]; oral 3 mg/kg
  Area under the drug concentration-time curve: 33.40 µM·h
  Peak concentration: 12.75 µM
  Peak time: 0.38 h
  Bioavailability F: 147%
[2]; oral 3 mg/kg, listed as compound of formula (I)
  Bioavailability F: > 50%

## CCCNS(=O)(=O)Nc1ncnc(OCCOc2ncc(Br)cn2)c1-c1ccc(Br)cc1 [Macitentan, reference compound]
CYP1A2
  IC50: 37.4 µM
CYP2C9
  Inhibition on the isozyme CYP2C9 (in words): moderate inhibition
CYP2C19
  IC50: 31.7 µM
